Measured values taken from US10351519B2, “Sulfamate derivative compounds, processes for preparing them and their uses” (BIO-PHARM SOLUTIONS CO., LTD., priority 2016, dated 2019).

How the values were obtained:
Type in all cases: in vivo
[1] = tested on: SD rats; experiment: Anti-epilepsy activity, MES test, rat; conditions: for ED50: Rattus norvegicus, po
Method: In the MES test (Ref., G. Villetti et al. Neuropharmacology 40 (2001) 866-878), an electrical stimulus (mice: 50 mA, 60 Hz, 0.2 sec, and rats: 150 mA, 60 Hz, 0.2 sec in the test animal) supplied by an 11A Shocker (IITC Life Science Company) was delivered through corneal electrodes. All mice or rats assigned to any electroshock at peak time were treated with each test compound sample which was dissolved in 30% PEG 400 or 20% tween 80 prepared by saline solvent applied orally before the test. […] Three doses of the test sample were administered orally to 9-18 animals (3-6 mice per dose) for evaluating the respective doses at which 50% of the animals were protected from seizure (ED50). The ED50 value (median effective dose) was calculated by Litchfield and Wicoxon log-probit method which is a dose-response relationship. Experimental animals, male ICR mice and male SD rats, were purchased from OrientBio, Samtako, or Nara Biotech, Korea, and housed in cages (4-5 mice or 3 rats per cage) for 4-5 days. The range of mice body weight was between 19 and 25 grams and range of rats body weight was between 100 and 130 grams.

[2] = tested on: ICR mice; experiment: Anti-epilepsy activity, MES test, mouse; conditions: for ED50: po
Summary of the method: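 Maximal electroshock delivered through corneal electrodes at 60 Hz for 0.2 s: 50 mA for male ICR mice (19–25 g), 150 mA for male SD rats (100–130 g). Compounds given orally in 30% PEG 400 or 20% Tween 80 in saline, tested at peak time, three doses per compound. ED50 for seizure protection derived by Litchfield–Wilcoxon log-probit analysis.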

[3] = tested on: Sprague-Dawley rats; experiment: Antiallodynic activity on Chung model (SNL, spinal nerve ligation); conditions: orally; for ED50: Rattus norvegicus, po, at peak time
Text: Male Sprague-Dawley rats (100-130 g, Orient Bio, Korea) were habituated for 1 week before the experiment and allowed free access to food and water throughout the experimentation. Room temperature and humidity were maintained at 24±2 and 50±10%, respectively. The neuropathic surgery (SNL, Spinal nerve ligation) model was done as described in Kim and Chung (1992). Briefly, an animal was put under gaseous anesthesia with isoflurane. The left lumber spinal nerve L5 and L6 were isolated and tightly ligated with 6-0 silk thread. The wound muscle was closed with Catgut® chrom 3/0 thread and skin was closed with Dafilon 3/0 tread. Sham controls were prepared in the same manner with the spinal nerves exposed, but with no ligated L5 and L6 nerves. Preparation of the vehicle controls were identical to the group treated with compound, except for administration of vehicles without compound in the vehicle control group.
Tactile sensitivity (Mechanical allodynia) was evaluated using von Frey monofilaments before and after treatment, and animals were included in the study only if the withdrawal threshold value was less than 4 g. One week after surgery, SNL-operated animals, sham-operated animals and vehicle control animals were tested for tactile sensitivity with von Frey monofilaments 3 trials in each animal. All Animals were placed in a stainless steel mash chamber and habituated for 30 min in the test cage. The tactile sensitivity for the ipsilateral hind paw was measured using the up-and-down method (Dixon, 1980) with seven von Frey monofilaments (0.4, 1, 2, 4, 6, 8, and 15 g) in 3 trials. The tactile sensitivity test was followed by Dixon's method (Dixon, 1980). The 50% paw withdrawal threshold for each paw was calculated using the following formula: [Xth] log=[vFr] log+ky where [vFr] is the force of the last von Frey used, k=0.2249 which is the average interval (in log units) between the von Frey monofilaments, and y is a value that depends upon the pattern of withdrawal responses (Dixon, 1980).
All animals were fasted 18 h before the administration of the compounds. Antiallodynic effect of compounds were evaluated at the three dose, orally administrated in a volume of 5 ul/g, bw in a vehicle of 30% (v/v) PEG 400 or 20% (v/v) Tween 80. The test was performed at the peak time of efficacy after compound administration.
The relative values compared to the sham group (% control) were calculated and shown in Table 3, which show an antiallodynic effect of the test compounds on SNL model in rats.

[4] = tested on: ICR mice; experiment: Anti-epilepsy activity, scPTZ test, mouse; conditions: for ED50: ip
Text: In this experiment, each test compound sample was formulated as described in Biological Experimental Example I, and administered intraperitoneally to the test animals (mice; ICR or Rat; SD); Experimental animals, male ICR mice and male SD rats, were purchased from OrientBio or Nara biotech, Korea, and housed 4-5 mice per a cage for 4-5 days. The range of mice body weight was used between 19 and 26 grams and range of rats body weight was used between 100 and 130 grams. After Peak time (0.5, 1, 2 and 4 hr) from the administration, PTZ (Pentylenetetrazol) was administered subcutaneously in the concentration capable of inducing 97% intermittent convulsions (mice: 76-110 mg/kg·bw, 10 μl/g, or rats: 79-110 mg/kg·bw, 2 μl/g). If clonic seizure was not observed for at least 30 minutes in the PTZ administered animal, it can be considered that the test compound has anti-epilepsy activity. The median effective dose (ED50) is determined using 6 animals per a concentration (total three different concen-trations), and calculated by Litchfield and Wicoxon log-probit method which is a dose-response relationship.

[5] = tested on: ICR mice; experiment: Chemical induced seizure model (BIC); conditions: for ED50: Mus musculus, ip
Method: Male ICR mice (purchased from Orient Bio Inc. Korea) of body weight 19-26 g were used for these studies. The test materials were administered intraperitoneal route in a volume of 10 ul/g weight. Pharmacological effects of all the test materials were evaluated to compared test groups (n=6) with a control group (n=6). Control group was administrated vehicle, only. The peak time was determined by administration test material's random dose for 0.5-4 hour. The time that the most protect was defined peak time and ED50 was determined by other dose administration at peak time. BIC was dissolved in 0.9% saline and administered subcutaneously (s.c.) at its CD97 (convulsive dose 97%) the dose of BIC that produced clonic seizures in 97% into a loose fold of skin in the midline of the neck in a volume of 10 ul/g body weight. The animals were then transferred to observation cages and observed continuously for 30 min. Clonic seizure was elicited in approximately 95% of control group. Protection was defined as complete absence of a clonic seizure over the 30-min observation period. The time that the most protect was defined peak time and ED50 was determined by other dose administration at peak time. The effective dose of compound necessary to protect against seizures to 50% of controls (i.e. ED50) was determined by log probit analysis using Excel 2007 (Microsoft).

For C[C@@H](OS(N)(=O)=O)[C@H](O)c1ccccc1Cl [Example 2, (1R, 2R)-1-(2-chlorophenyl)-1-hydroxypropan-2-yl sulfamate], the “MES test (po) Peak time” value [1] was “(2 h)”, the ED50 [1] was 5 mg/kg and the “MES test (po) Peak time” value [2] was 2 h. The ED50 [2] was 22.8 mg/kg, the “SNL Peak Time” value [3] was 1 h and the SNL efficacy % ([3]; 30 mg/kg) was 30(38.6%). The “scPTZ test (ip) Peak time” value [4] was 1 h and the ED50 [4] was 18.2 mg/kg.
With C[C@H](OS(N)(=O)=O)[C@@H](O)c1c(Cl)cccc1Cl [Example 7, (1S, 2S)-1-(2,6-dichlorophenyl)-1-hydroxypropan-2-yl sulfamate] the “BIC(ip) Peak Time” value [5] was 1 h, the ED50 [5] was 30.8 mg/kg and the “MES test (po) Peak time” value [1] was “(2 h)”. The ED50 [1] was 23.5 mg/kg, the “MES test (po) Peak time” value [2] was 1 h and the ED50 [2] was 40.7 mg/kg. The ED50 [3] was 4.4 mg/kg, the “SNL Peak Time” value [3] was 0.5 h and the “scPTZ test (ip) Peak time” value [4] was 0.5 h. It also gave an ED50 [4] of 8.6 mg/kg.
C[C@@H](OS(N)(=O)=O)[C@H](O)c1c(Cl)cccc1Cl [Example 8, (1R, 2R)-1-(2,6-dichlorophenyl)-1-hydroxypropan-2-yl sulfamate] was tested, and the “BIC(ip) Peak Time” value [5] was 1 h, the ED50 [5] was 73.9 mg/kg and the “MES test (po) Peak time” value [1] was “(1 h)”. For the same molecule, the ED50 [1] was 24 mg/kg, the “MES test (po) Peak time” value [2] was 2 h and the ED50 [2] was 27.9 mg/kg. For the same molecule, the ED50 [3] was 35.3 mg/kg, the “SNL Peak Time” value [3] was 1 h and the “scPTZ test (ip) Peak time” value [4] was 1 h. For the same molecule, the ED50 [4] was 13.5 mg/kg.
COCO[C@H](c1ccccc1Cl)[C@@H](C)OS(N)(=O)=O [Example 70, (1R, 2R)-1-(2-chlorophenyl)-1-(methoxymethoxy)propan-2-yl sulfamate] was tested, and the “MES test (po) Peak time” value [1] was “(1 h)”, the ED50 [1] was 46.6 mg/kg and the “MES test (po) Peak time” value [2] was 2 h. For the same molecule, the ED50 [2] was 50.5 mg/kg, the ED50 [3] was 6.5 mg/kg and the “SNL Peak Time” value [3] was 1 h. The “scPTZ test (ip) Peak time” value [4] was 2 h and the ED50 [4] was 50.2 mg/kg.
